Data set [1] has as its target T1, Adenosine receptor A3 (Homo sapiens) (UniProt P0DMS8).
T1 sequence (whole entry): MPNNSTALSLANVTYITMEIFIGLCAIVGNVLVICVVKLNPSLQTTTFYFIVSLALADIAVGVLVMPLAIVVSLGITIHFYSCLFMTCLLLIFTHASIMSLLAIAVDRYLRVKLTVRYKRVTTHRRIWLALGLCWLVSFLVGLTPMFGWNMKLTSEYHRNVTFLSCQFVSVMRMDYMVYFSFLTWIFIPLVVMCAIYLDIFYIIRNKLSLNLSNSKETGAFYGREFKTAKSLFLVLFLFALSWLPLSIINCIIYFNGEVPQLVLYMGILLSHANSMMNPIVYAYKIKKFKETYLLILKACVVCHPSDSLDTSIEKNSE
Nature of the data set: Displacement of [125I]AB-MECA from human recombinant adenosine A3 receptor expressed in HEK293 cells at 10 uM after 120 mins by scintillation counting analysis. Type of data set: cell-based. In general terms: Displacement assays read how much labelled ligand stays bound in the presence of the test substance.

For data set [2], the target named is Sodium-dependent noradrenaline transporter (Homo sapiens) (UniProt P23975). Description: Displacement of [3H]nisoxetine from human recombinant norepinephrine transporter expressed in CHO cells at 10 uM after 120 mins by scintillation counting analysis. Type of data set: cell-based.
Data set [3] relates to Mus musculus. Description: General behavioral response in CD1 mouse assessed as induction of limbic stereotype at 10 mg/kg, po after 90 mins by Irwin test. Particulars: in vivo, 1.5 h. It is filed as organism-based, Limbic system. Further details: dose 10 mg/kg, route oral.
The target of data set [4] is T2, Substance-K receptor (Homo sapiens) (UniProt P21452).
T2 sequence (whole entry): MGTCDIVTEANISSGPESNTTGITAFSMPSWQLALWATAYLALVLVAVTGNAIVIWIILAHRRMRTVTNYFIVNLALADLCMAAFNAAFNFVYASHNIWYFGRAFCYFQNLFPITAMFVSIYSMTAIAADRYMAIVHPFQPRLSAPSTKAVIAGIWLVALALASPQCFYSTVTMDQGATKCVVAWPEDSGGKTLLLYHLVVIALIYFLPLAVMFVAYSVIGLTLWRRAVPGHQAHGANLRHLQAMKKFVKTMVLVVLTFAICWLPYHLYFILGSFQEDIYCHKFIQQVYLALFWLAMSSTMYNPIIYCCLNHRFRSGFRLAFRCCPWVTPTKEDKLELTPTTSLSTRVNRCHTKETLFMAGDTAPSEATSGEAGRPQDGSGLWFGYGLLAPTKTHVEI
Description: Displacement of [125I]NKA human recombinant NK2 receptor expressed in CHO cells at 10 uM after 60 mins by scintillation counting analysis. It is filed as cell-based.

Data set [5] deals with Mus musculus. Nature of the data set: Reversal of haloperidol-induced catalepsy in po dosed CD1 mouse treated 2.5 hrs after haloperidol injection measured every 60 mins for 3 hrs. Type of data set: functional, organism-based.
For data set [6], the system named is Mus musculus. Nature of the data set: General behavioral response in CD1 mouse assessed as induction of limbic stereotype at 30 to 100 mg/kg, po after 90 mins by Irwin test. Type of data set: organism-based, Limbic system. Further details: dose 30-100 mg/kg, route oral. Conditions: in vivo, 1.5 h.
The subject of data set [7] is Mus musculus. Description: Reversal of haloperidol-induced catalepsy in CD1 mouse at 30 to 100 mg/kg, po treated 2.5 hrs after haloperidol injection measured every 60 mins for 3 hrs. Type of data set: functional, organism-based.
For data set [8], the target named is 5-hydroxytryptamine receptor 2B (Homo sapiens) (UniProt P41595). Description: Displacement of [125I](+/-)DOI from human recombinant 5HT2B receptor expressed in CHO cells at 10 uM after 60 mins by scintillation counting analysis. Type of data set: cell-based.
Data set [9] addresses T3, Amine oxidase [flavin-containing] A (Homo sapiens, UniProt P21397).
T3 sequence (P21397 whole entry): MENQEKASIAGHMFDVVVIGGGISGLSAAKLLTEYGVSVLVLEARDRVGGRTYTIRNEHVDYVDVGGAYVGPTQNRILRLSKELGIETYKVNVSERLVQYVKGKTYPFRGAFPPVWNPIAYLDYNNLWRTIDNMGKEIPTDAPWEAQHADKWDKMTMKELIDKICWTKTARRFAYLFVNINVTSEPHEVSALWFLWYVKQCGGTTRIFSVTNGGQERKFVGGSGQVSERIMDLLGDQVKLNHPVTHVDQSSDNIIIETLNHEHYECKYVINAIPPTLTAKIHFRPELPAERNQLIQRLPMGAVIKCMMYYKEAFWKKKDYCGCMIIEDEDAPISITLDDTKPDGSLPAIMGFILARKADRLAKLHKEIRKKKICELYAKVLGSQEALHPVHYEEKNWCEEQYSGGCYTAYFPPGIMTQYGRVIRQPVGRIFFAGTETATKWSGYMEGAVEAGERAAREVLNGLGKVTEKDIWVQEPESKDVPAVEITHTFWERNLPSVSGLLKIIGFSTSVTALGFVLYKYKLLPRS
Nature of the data set: Inhibition of human MAOA after 1 hr by luminescence assay.

Data set [10] deals with T4, Adenosine receptor A2a (Homo sapiens, UniProt P29274). Nature of the data set: Displacement of [3H]CGS 21680 from human recombinant adenosine A2A receptor expressed in HEK293 cells at 10 uM after 120 mins by scintillation counting analysis. It is filed as cell-based.
In data set [11] the test system is Mus musculus. Nature of the data set: Reversal of haloperidol-induced catalepsy in CD1 mouse at 10 mg/kg, po treated 2.5 hrs after haloperidol injection measured every 60 mins for 3 hrs. Type of data set: functional, organism-based. Further details: dose 10 mg/kg.
Data set [12] has as its system Mus musculus. Nature of the data set: General behavioral response in CD1 mouse assessed as induction of striatal stereotype at 30 to 100 mg/kg, po after 90 mins by Irwin test. Conditions: in vivo, 1.5 h. It is filed as organism-based. Further details: dose 30-100 mg/kg, route oral.
For data set [13], the target named is T5, Adenosine receptor A1 (Homo sapiens) (UniProt P30542).
T5 sequence (whole entry): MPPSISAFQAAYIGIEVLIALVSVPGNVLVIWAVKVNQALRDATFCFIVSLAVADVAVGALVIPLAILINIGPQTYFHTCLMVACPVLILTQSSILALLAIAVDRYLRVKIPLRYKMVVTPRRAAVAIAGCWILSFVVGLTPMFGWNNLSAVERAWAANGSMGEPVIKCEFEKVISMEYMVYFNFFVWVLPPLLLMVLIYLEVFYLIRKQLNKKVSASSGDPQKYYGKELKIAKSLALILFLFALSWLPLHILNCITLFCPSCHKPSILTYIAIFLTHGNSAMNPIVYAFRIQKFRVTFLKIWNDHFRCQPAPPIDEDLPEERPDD
Description: Displacement of [3H]DPCPX from human recombinant adenosine A1 receptor expressed in CHO cells at 10 uM after 60 mins by scintillation counting analysis. Type of data set: cell-based.

In data set [14] the test system is Mus musculus. Nature of the data set: General behavioral response in CD1 mouse assessed as induction of striatal stereotype at 10 mg/kg, po after 90 mins by Irwin test. Type of data set: organism-based. Further details: dose 10 mg/kg, route oral. Conditions: in vivo, 1.5 h.
For data set [15], the target named is T6, Amine oxidase [flavin-containing] B (Homo sapiens, UniProt P27338).
T6 sequence (P27338 whole entry): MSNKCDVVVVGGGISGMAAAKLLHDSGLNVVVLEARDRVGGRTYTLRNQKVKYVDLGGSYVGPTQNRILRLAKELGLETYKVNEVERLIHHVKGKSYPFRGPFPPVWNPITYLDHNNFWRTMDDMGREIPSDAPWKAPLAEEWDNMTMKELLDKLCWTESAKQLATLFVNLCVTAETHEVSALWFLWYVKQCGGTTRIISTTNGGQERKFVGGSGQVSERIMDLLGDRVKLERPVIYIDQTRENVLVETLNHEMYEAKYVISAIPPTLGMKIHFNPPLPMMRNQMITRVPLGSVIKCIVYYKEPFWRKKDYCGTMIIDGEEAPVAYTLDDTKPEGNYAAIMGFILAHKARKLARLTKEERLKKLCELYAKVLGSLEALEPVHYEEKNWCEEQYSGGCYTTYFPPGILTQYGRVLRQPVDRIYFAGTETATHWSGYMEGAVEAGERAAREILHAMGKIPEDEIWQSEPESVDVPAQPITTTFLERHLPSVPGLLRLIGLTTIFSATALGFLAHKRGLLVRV
Nature of the data set: Inhibition of human MAOB after 1 hr by luminescence assay.

Data set [16] has as its target T4, Adenosine receptor A2a. Nature of the data set: Displacement of [3H]ZM241385 from human adenosine A2A receptor expressed in HEK293 cells after 1 hr by microbeta scintillation counting analysis. Type of data set: cell-based.
Data set [17] relates to Mus musculus. Nature of the data set: General behavioral response in CD1 mouse assessed as increase in licking behavior at 100 mg/kg, po after 240 mins by Irwin test. Type of data set: ADME, organism-based. Further details: dose 100 mg/kg, route oral. Conditions: in vivo, 4 h.
Data set [18] deals with Adenosine receptor A2a (Rattus norvegicus, UniProt P30543). Description: Binding affinity to A2A receptor in rat brain striatal membrane by radioligand displacement assay. Type of data set: cell membranes.

Molecules are shown by their SMILES. Activity calls are given as the source filed them. The calls are words filed in the database; no cut-off is given here.

T4 sequence (P29274 whole entry): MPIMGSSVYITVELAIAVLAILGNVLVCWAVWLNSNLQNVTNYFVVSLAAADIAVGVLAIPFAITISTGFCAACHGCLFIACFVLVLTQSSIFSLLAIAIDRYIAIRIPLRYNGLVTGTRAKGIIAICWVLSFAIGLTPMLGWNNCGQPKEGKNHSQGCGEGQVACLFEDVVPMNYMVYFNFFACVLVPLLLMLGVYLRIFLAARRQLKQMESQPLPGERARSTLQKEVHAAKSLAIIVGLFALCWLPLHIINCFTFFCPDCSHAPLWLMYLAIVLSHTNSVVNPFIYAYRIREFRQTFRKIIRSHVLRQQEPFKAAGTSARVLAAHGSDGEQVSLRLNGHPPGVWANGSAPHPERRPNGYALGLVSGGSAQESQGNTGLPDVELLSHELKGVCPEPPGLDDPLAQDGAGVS
Sequence of Adenosine receptor A2a (Rattus norvegicus, UniProt P30543) (P30543 whole entry): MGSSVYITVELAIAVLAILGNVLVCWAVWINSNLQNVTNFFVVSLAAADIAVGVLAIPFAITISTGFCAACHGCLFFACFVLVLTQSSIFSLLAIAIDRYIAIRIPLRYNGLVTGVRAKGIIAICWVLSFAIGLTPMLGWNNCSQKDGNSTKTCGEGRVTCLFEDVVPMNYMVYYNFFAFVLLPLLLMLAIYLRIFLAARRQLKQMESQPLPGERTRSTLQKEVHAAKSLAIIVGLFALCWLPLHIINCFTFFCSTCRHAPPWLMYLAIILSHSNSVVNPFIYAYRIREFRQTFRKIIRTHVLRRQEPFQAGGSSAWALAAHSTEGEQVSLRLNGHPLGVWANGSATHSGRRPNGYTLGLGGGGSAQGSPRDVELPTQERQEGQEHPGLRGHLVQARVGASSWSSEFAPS
Sequence of Sodium-dependent noradrenaline transporter (Homo sapiens) (P23975 whole entry): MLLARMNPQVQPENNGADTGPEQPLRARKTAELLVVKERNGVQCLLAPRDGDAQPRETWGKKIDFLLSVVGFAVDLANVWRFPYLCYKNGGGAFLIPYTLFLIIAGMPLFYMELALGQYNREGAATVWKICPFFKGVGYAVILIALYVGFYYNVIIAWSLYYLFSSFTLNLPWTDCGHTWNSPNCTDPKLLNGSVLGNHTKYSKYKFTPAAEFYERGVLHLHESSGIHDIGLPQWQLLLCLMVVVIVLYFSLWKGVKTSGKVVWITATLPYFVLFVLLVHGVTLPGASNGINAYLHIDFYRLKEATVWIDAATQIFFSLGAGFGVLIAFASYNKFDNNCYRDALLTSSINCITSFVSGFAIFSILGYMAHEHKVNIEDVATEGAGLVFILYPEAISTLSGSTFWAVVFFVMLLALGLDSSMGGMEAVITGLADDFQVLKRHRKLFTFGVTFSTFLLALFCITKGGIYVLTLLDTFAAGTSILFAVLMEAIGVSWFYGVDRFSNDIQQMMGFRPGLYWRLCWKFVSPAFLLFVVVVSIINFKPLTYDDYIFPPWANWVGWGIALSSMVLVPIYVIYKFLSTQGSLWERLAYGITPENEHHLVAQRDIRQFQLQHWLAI
Sequence of 5-hydroxytryptamine receptor 2B (Homo sapiens) (P41595 whole entry): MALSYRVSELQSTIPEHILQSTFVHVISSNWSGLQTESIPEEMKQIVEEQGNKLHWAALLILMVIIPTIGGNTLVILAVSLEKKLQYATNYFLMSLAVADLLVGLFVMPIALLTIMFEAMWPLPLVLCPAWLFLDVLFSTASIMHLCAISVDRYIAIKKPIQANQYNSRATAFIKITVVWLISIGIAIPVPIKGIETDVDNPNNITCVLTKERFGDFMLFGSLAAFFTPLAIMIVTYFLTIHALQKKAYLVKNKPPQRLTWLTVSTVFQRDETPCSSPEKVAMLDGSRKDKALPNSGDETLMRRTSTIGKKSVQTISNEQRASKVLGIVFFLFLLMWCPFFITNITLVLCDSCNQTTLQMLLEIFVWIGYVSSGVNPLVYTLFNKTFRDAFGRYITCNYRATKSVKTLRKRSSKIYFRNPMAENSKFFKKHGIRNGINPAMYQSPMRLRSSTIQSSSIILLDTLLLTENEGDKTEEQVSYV

Consider `Cn1c(=O)c2c(cc(/C=C/c3ccc(Cl)cc3)n2C)n(C)c1=O`, for which the inhibition was found to be 60% in data set [1]; 57% in data set [2]; 75% in data set [4]; 72% in data set [8]; 91% on Adenosine receptor A2a [10]; 59% in data set [13]. Besides, the Activity result in the data set on Mus musculus [3] was “Non-toxic”; with Mus musculus [5], “Dose-dependent effect”; with Mus musculus [6], “Toxic”; in the data set on Mus musculus [12] it was “Toxic”; in the data set on Mus musculus [14], “Non-toxic”; in the data set on Mus musculus [17] it was “Toxic”. Besides, in the data set with Mus musculus [7], the result was Active. The values for the IC50 in data set [9] and in data set [15] were 10000 nM and 200 nM, respectively. Further, the outcome in the data set with Mus musculus [11] was inactive. For the same compound, at Adenosine receptor A2a [16], affinity was put at a Ki of 260 nM.

`C#CCn1c(=O)c2c(nc(C#Cc3ccccc3)n2C)n(C)c1=O` registered a Ki at Adenosine receptor A2a [18] of 300 nM.

Usually inhibition stands for the share of the control response that was lost under treatment. Usually IC50 stands for the midpoint of a concentration-inhibition curve. High values mean weaker potency, low ones greater potency. The term Ki denotes the equilibrium dissociation constant of an inhibitor or competing ligand from its target. Read a low Ki as tighter binding.

The values above are taken from ChEMBL document CHEMBL2311471, “Synthesis of (E)-8-(3-chlorostyryl)caffeine analogues leading to 9-deazaxanthine derivatives as dual A(2A) antagonists/MAO-B inhibitors” (J Med Chem, 2013).
